# Test results published in patent US20050080140A1, “Method for treating or preventing inflammatory disorders” (AnGes MG, Inc., priority 2003, published 2005).
# Entries after “also recorded” stand apart in the source; their conditions may differ.
# Tests used:
# IL-13 gene = test: RT-PCR analysis of IL-13 mRNA; type: cell-based, human; details: HUVEC, 10 μM cPGI, 12 h, FIG. 1A
# Procedure: For analysis of IL-13, human vascular endothelial cells (1.2×10^4 cells/cm^2) were stimulated with cPGI (10 μM) for 12 h, and total RNA was prepared from stimulated cells with Isogen (Nippon Gene). For analysis of COX-2, human vascular endothelial cells (1.2×10^4 cells/cm^2) were pretreated with TNF-α (1 ng/ml) and IL-1b (20 ng/ml) for 1 h, and then treated with cPGI (0, 10 μM), anti-human IL-13 monoclonal antibody (0, 0.5 μg/ml) and control IgG (0, 0.5 μg/ml) for 12 h to prepare total RNA. The total RNA (0.5 μg) was used for analysis by SuperScript RT-PCR system (Invitrogen) according to the manufacturer's instructions. The oligonucleotide primers used were IL-13-s (5′-[…]-3′ (SEQ ID NO: 6); sense) and IL-13-as (5′-[…]-3′ (SEQ ID NO: 7); antisense) for human IL-13, β-actin-s (5′-[…]-3′ (SEQ ID NO: 8); sense) and β-actin-as (5′-[…]-3′ (SEQ ID NO: 9); antisense) for human β-actin, and COX-2-s (5′-[…]-3′ (SEQ ID NO: 10); sense) and COX-2-as (5′-[…]-3′ (SEQ ID NO: 11); antisense) for human COX-2. For each PCR amplification, 1 μl of cDNA was used in a 50 μl reaction. Reverse transcription-PCR (RT-PCR) for β-actin (25 cycles) was used as an internal control for mRNA abundance. For IL-13 and COX-2 genes, the number of cycles ranged from 25 to 45. […] Samples were normalized based on equivalent expression of β-actin.
# IL-13 = IL-13 ELISA of culture medium of human vascular endothelial cells; type: cell-based; details: 24 h; for endogenous IL-13 expression in PGI2-deprived cells: HUVEC treated with PGIS siRNA, cPGI 10 μM, FIG. 6C
# Procedure: Human vascular endothelial cells (1.2×10^4 cells/cm^2) were cultured in EGM-2 containing 2% FBS and several concentrations of cPGI with or without TNF-α for 24 h. Incubation media were collected and stored at −80° C. before assay. Amounts of IL-13 were measured with human IL-13 ELISA system (Amersham Pharmacia Biotech, Buckinghamshire, UK) and amounts of PGI2 were measured as the amounts of 6-keto-PGI1α, a stable metabolite of PGI2, with 6-keto-PGI1α ELISA kit (Cayman Chemical Co., Ann Arbor, Mich.) according to the manufacturers' instructions.
# siRNA duplexes with the following sense and antisense sequences were made: PGIS1, 5′-[…]-3′ (SEQ ID NO: 12; sense) and 5′-[…]-3′ (SEQ ID NO: 13; antisense); PGIS2, 5′-[…]-3′ (SEQ ID NO: 14; sense) and 5′-[…]-3′ (SEQ ID NO: 15; antisense); PGIS3, 5′-[…]-3′ (SEQ ID NO: 16; sense) and 5′-[…] (SEQ ID NO: 17; antisense); and PGIS4, 5′-[…]-3′ (SEQ ID NO:, 18; sense) and 5′-[…]-3′ (SEQ ID NO: 19; antisense). siRNAs were synthesized and annealed by Dharmacon Research Inc. (Lafayette, CO). Control non-silencing siRNA, a duplex of sense (5′-UUCUCCGAACGUGUCACGUdTdT-3′; SEQ ID NO: 20) and antisense (5′-ACGUGACACGUUCGGAGAAdTdT-3′; SEQ ID NO: 21) sequences, was purchase from Qiagen (Valencia, Calif.). The cells were initially transfected with 200 pmol per well of the annealed RNA mixture or the same amount of control siRNA using LipofectAMINE2000 (Invitrogen), and 12 h later secondly transfected with the same amount of siRNAs using HVJ-liposome transfection kit (GenomeONE; Ishihara Sangyo, Osaka, Japan) according to the manufacturers' instructions. The cells were retransfected with the siRNAs every 3 days using LipofectAMINE2000 and HVJ-liposome, and used for analyses 10 days after transfection. Microsomal fractions of the cells were prepared and analyzed by immunoblotting with anti-PGIS P4 polyclonal antibody as described previously (Hatae et al., J. Biol. Chem. (2001) 276: 46260-7). The cells treated with siRNAs for 10 days were cultured in fresh EGM-2 containing 2% FBS and TNF-α (0, 10 ng/ml). with or without cPGI (10 μM) for 24 h. The incubation media were collected, and amounts of 6-keto-PGI1α or IL-13 were measured with ELISA kit.
# PPRE (PPARδ activation) = test: PPREx3-luciferase reporter assay; type: cell-based, human; details: HUVEC, 24 h
# Procedure: Primary cultured human umbilical vein endothelial cells (HUVEC) and human aortic endothelial cells (HAEC) were obtained from Kurabo Co. Ltd. (Tokyo, Japan) and were cultured in EGM-2 growth medium supplemented with 2% fetal bovine serum (FBS) and a mixture of growth factors according to the supplier's instructions. Total RNA from the cells in culture was prepared with Isogen (Nippon Gene, Tokyo, Japan). Human embryonic kidney HEK-293 cells were cultured in DMEM containing 10% FBS, 2 mM L-glutamine, 100 U/ml penicillin and […] streptomycin as described previously (Hatae et al., J. Biol. Chem. (2001) 276: 46260-7). […] HEK-293 cells were transfected with DNA using lipofectAMINE (Invitrogen, Carlsbad, Calif.) as described previously (Hatae et al., J. Biol. Chem. (2001) 276: 46260-7). Human vascular endothelial cells were transfected with TransIT LT-1 (PanVera Co., Madison, Wis.). Transfections were performed at a ratio of 1 μg of DNA to 3.0 μl of the reagents, and cells were incubated in serum-free EGM-2 at 37° C. for 5 h. Subsequently, cells were grown in fresh EGM-2 containing 2% FBS and a mixture of growth factors for 12 h before analysis. For reporter assay, human vascular endothelial cells (1.2×10^4 cells/cm^2) were cotransfected with 0.2 μg of the PPREx3-luciferase reporter vector and 0.1 μg of β-galactosidase expression vector by use of TransIT LT-1. After 17 h of transfection, cells were washed with PBS, incubated in EGM-2 containing 2% FBS and cPGI (0-100 μM) for 24 h at 37° C., and subjected to luciferase assay as described previously (Hatae et al., J. Biol. Chem. (2001) 276: 46260-7). The luciferase activity of the extract was normalized to β-galactosidase activity.
smiles,measurement,setting,value
"CCCCC[C@H](O)/C=C/[C@@H]1[C@H]2C/C(=C/CCCC(=O)O)C[C@H]2C[C@H]1O [cPGI, carbaprostacyclin]",IL-13 mRNA expression (RT-PCR),IL-13 gene,apparent induction
same,endogenous IL-13 expression in PGI2-deprived cells,IL-13,significantly increased
same,endogenous IL-13 expression in PGI2-deprived cells,IL-13; listed as carbaprostacyclin,significantly induced
same,"production of IL-13, exogenous cPGI added to TNF-α","IL-13; HUVEC, TNF-α 0-10 ng/ml with cPGI 0, 2 or 10 μM, dose-dependent, FIG. 4C",enhanced
same,IL-13 protein in the culture medium (ELISA),"IL-13; HUVEC, cPGI 0, 1, 10 and 100 μM, FIG. 1B",detectable; also recorded: dose-dependent
same,"luciferase activity of PPRE reporter, exogenous cPGI added to TNF-α","PPRE (PPARδ activation); TNF-α 0-10 ng/ml with cPGI 0, 2 or 10 μM, dose-dependent, FIG. 4B",enhanced
same,luciferase activity of reporter vector containing PPRE,"PPRE (PPARδ activation); cPGI 0, 1, 10 and 100 μM, FIG. 1C",dose-dependent
